Data as given in patent US20230287316A1, “INTER-ORGAN PLATFORM WITH TISSUE-SPECIFIC NICHES FOR A MICROPHYSIOLOGICAL SYSTEM ON A CHIP” (THE TRUSTEES OF COLUMBIA UNIVERSITY IN THE CITY OF NEW YORK, priority 2020, published 2023).

Tests used:
[1] = test system: metastatic SK-N-MC cell line; assay: Linsitinib 12 µM on metastatic ES cell monolayers, luminescence viability; type: cell-based, human; details: 12 µM over 72 hours
Experimental: (§1) MTT viability assay was used to determine drug toxicity, with luminescence generated by viable cells measured at the endpoint (10^4 cells per well, mean± s.e.m., n = 3). […] In order to determine cancer cell viability, cells were lysed and treated with luciferin using a Bright-Glo™ assay, with subsequent luminescence measured (10^4 cells per well, mean± s.e.m., n = 3).
(§2) Both culture media were supplemented with 10% FBS and 1 % penicillin/streptomycin.
(§3) Cell viability was analyzed using a previously established protocol.^59 Cancer cell viability was measured for GFP-Luciferase labelled cancer cells using ONE-Glo luciferase substrate that was prepared according to manufacturer’s protocol (Promega). Samples were collected following 3, 7, and 21 days cycles of linsitinib treatment. Where noted, longitudinal cell viability was also assessed using luminescence, though at the cost of signal strength. Briefly, in vivo grade VivoGlo™ Luciferin (Promega) was made at a 200x stock concentration (30 mg/ml) in water, added to sample culture media at a 1:200 dilution, and scanned using a spectrophotometer (Biotek). Some of the IC50 values were determined using cell viability data generated using an MTT assay (RealTime-Glo™ MT Cell Viability Assay, Promega) that were analyzed according to manufacturer’s protocol.

[2] = cited from earlier work
[3] = test system: tumors from metastatic cells; assay: Linsitinib in bioengineered tumors from metastatic OS cells; type: cell-based, human; details: 12 µM, for 3 weeks
Experimental: We tested the drug Linsitinib—a potent tyrosine kinase inhibitor targeting the IGF-1 receptor (IGF-1R) —in metastatic and non-metastatic OS models (FIG. 17C). The drug was administered (12 µM, for 3 weeks), as per an ongoing Phase II Eurosarc trial in patients with advanced Ewing sarcoma.

[4] = test system: metastatic TE-ES (SK-N-MC) bone tumor; assay: Linsitinib on metastatic engineered ES bone tumors (TE-ES) cultured in isolation; type: cell-based, human; details: 12 µM
Experimental: (§4) FIGS. 32A-D show aspects of responses of human engineered bone ES tumors and cardiac tissues to linsitinib in isolated platform chambers. […] Luminescence as a function of cancer cell number and viability was measured (mean± s.e.m., n = 6 for day 3, and n = 3 for day 7 and 21).
(§5) Supernatants were collected from each individual sample across the duration of the drug treatments and were analyzed for osteoblast function (OCN, OPN) and for cytotoxicity (LDH) (mean± s.e.m., n = 3).
(§6) Two weeks following the initiation of osteogenic differentiation, aggregates of ES tumor cells were prepared as described previously, using 0.3 × 10^6 cells per aggregate. After 1 week of culture, corresponding to the end of bone tissue culture (3 weeks), the primary ES cell aggregates were placed into the engineered bone constructs (3 aggregates per construct, placed apart of each other). Tumor models were established for two different types of primary ES cells: non-metastatic (RD-ES) and metastatic (SK-N-MC). Tissue engineered RD-ES and SK-N-MC tumors were cultured in the RPMI and EMEM media, respectively, supplemented with 10% FBS and 1% penicillin/streptomycin. Bone constructs cultured without tumor cell aggregates (TE-bone) in RPMI and EMEM media were used as controls.
as §3
Osteocalcin (OCN), osteopontin (OPN), and lactic acid dehydrogenase (LDH) secreted levels were all measured using a similar approach. Supernatants were isolated from controls and drug treated TE-ES and equal amounts were used in each assay according to the manufacturer’s instructions. For OCN a Human Osteocalcin Quantikine^R ELISA (R&D Systems) was used, while for OPN it was a Human Osteopontin Quantikine^R ELISA (R&D Systems). LDH secretion was determined using a Lactate Dehydrogenase Assay Kit (Colorimetric; Abcam).

ES cell monolayers = assay: Linsitinib dose response in ES cell monolayers (MTT and luminescence viability); type: cell-based, human; details: 0-100 µM over 72 hours
Experimental: as §1, §3

[5] = test system: non-metastatic TE-ES (RD-ES) bone tumor; assay: Linsitinib on non-metastatic engineered ES bone tumors (TE-ES) cultured in isolation; type: cell-based, human
From the text: FIGS. 31A-E show aspects of the evaluation of the dose-dependent effects of doxorubicin and linsitinib on engineered non-metastatic and metastatic ES bone tumors. […] An MTT viability assay was used to determine drug toxicity, with luminescence generated by viable cells measured at the endpoint (10^4 cells per well, mean± s.e.m., n = 3). […] Tumors are outlined by white dashes and validated using corresponding H&E stains of the identical loci. All scale bars: 250 µm.
as §4
The effects of linsitinib were studied in an experiment performed according to the 3-week treatment cycle used in the clinical trial (3 days of drug administration followed by 4 days without the drug, in 3 cycles), with luminescence signal serving as an indicator of cancer cell viability within the TE-ES.
as §5, §6
To assess apoptosis, paraffin embedded tissue sections were first deparaffinized with CitriSolv, rehydrated with graded series of ethanol washes, and then stained with a Click-iT® TUNEL Alexa Fluor® imaging assay (Thermo Fisher Scientific). Following nuclear counterstaining with DAPI (Life Technologies), the TUNEL labelled slides were imaged with an IX81 inverted fluorescent microscope (Olympus) and a Pike F032B camera (ALLIED Vision), using NIS-Elements AR software, and processed using ImageJ (NIH). Four representative images per condition were then analyzed using the previously developed automatic TUNEL cell counter plugin for ImageJ to quantify DAPI^+ cells and TUNEL^+ cells.
as §3, with “(Biotek).” for “(Biotek). Some of the IC50 values were determined using cell viability data generated using an MTT assay (RealTime-Glo™ MT Cell Viability Assay, Promega) that were analyzed according to manufacturer’s protocol.”

[6] = test system: non-metastatic RD-ES cell line; assay: Linsitinib 12 µM on non-metastatic ES cell monolayers, luminescence viability; type: cell-based, human; details: 12 µM over 72 hours
Experimental: as §1, §2, §3

[7] = clinical trials of other types of cancer
[8] = 12 µM, 3-week regimen, supernatants

C[C@]1(O)C[C@@H](c2nc(-c3ccc4ccc(-c5ccccc5)nc4c3)c3c(N)nccn32)C1 [linsitinib]
drug efficacy (luminescence viability) [1]: significant drug efficacy
progression of ES in the clinical trial ([2]; Phase II trial, patients with refractory or relapsed ES): unable to stop progression of ES
Cmax ([2]; blood plasma, patients, read-out: Cmax clinical concentration): 12 µM
atrial fibrillation [2, 7]: 3.75 - 5%
tachycardia [2, 7]: 3.75-5 % of patients
half-life ([2]; known value): approximately 5 hours
tumor viability [3]: no effect
LDH secretion (cytotoxicity) ([4]; 3-week regimen, supernatants): spiked
Osteocalcin secretion ([4]; 3-week regimen, supernatants): decreased
cancer cell population (luminescence) ([4]; 21-day clinical treatment regimen): decrease in drug efficacy, as the cancer cell population continued to expand over the 21-day treatment cycle
drug response (luminescence) ([4]; after 3 days): significant drug response
osteopontin secretion ([4]; throughout the 21 days): decreased similar to osteocalcin
IC50 (MTT viability assay) (ES cell monolayers): two orders of magnitude lower than the effective plasma concentration observed in patients
IC50 (ES cell monolayers; Homo sapiens, GFP-luciferase cells, read-out: IC50 (luminescence as a proxy for cell viability)): ~12 µM
response to linsitinib concentration (luminescence viability) ([5]; 0, 1.2, 12, and 120 µM for 72 hours): dose-dependent response
apoptosis (TUNEL assay) ([5]; 12 µM): increases in apoptosis
cell viability (luminescence) ([5]; 12 µM): significant reduction in cell viability
LDH secretion (cytotoxicity) [5, 8]: spiked in both models immediately following drug administration, but significantly more so
Osteocalcin secretion [5, 8]: decreased
cancer cell population (luminescence) ([5]; 12 µM, 21-day clinical treatment regimen): initial decrease in cancer cell population in the non-metastatic model and this population appeared unable to continue expanding
drug response (luminescence) ([5]; 12 µM, after 3 days): significant drug response
osteopontin secretion ([5]; 12 µM, throughout the 21 days): significantly increased
drug response of tumors derived from sorted linsitinib-resistant cells ([5]; second 21-day 12 µM treatment regimen): significant initial drug response
drug efficacy (luminescence viability) [6]: significant drug efficacy
